Earlier results as cited in paper PMC6984391, “Anion carriers as potential treatments for cystic fibrosis: transport in cystic fibrosis cells, and additivity to channel-targeting drugs” (Chemical Science, 2019).

Parameters: method as in ref [20], [23] (Reference column)
Conditions: extraction of Et4N^+Cl^– from water into chloroform at 303 K; ref [20], [23]; cited from earlier work

Compound: CCOC(=O)[C@]12CC[C@@H](NC(=S)Nc3cc(C(F)(F)F)cc(C(F)(F)F)c3)C[C@@H]1C[C@@H](NC(=S)Nc1cc(C(F)(F)F)cc(C(F)(F)F)c1)CC2 [Compound 15]
- K a to Cl^– in CHCl3: 4.7 × 10^8 M^–1
